Paper PMC9811530 (Experimental and Clinical Endocrinology & Diabetes, 2022)
“Also recorded” adds a separate entry of the source. Like-named read-outs stand apart in the source and are kept apart here.

Legend:
[1] = format: in vivo, human; conditions: human, plasma, oral; for Tmax: t max, median (min–max); for Cmax: gMean (%gCV)
HPA axis = test: Total urinary corticosteroid excretion; format: in vivo, human
Metabolic parameters = format: in vivo, human
[2] = In vitro plasma protein binding; format: in vitro ADME; conditions: internal communication, data not shown
[3] = tested on: hypothalamus-pituitary-adrenal (HPA) axis; test: Hormones of the HPA axis; format: in vivo, human; conditions: all dose groups, during treatment
[4] = BI 187004 concentration in subcutaneous adipose tissue biopsies; conditions: gMean (%gCV); for BI 187004 AT Cday15: 24 h after last dose; for BI 187004 AT Cday2: immediately after second dose
[5] = In vitro blood cell partitioning; format: in vitro ADME; conditions: 10 and 100 nmol/L, internal communication, data not shown
[6] = cited from earlier work
[7] = human, in vivo

Structure (SMILES): N#Cc1ccc2c(c1)[C@H]1CCCN(C(=O)c3ccc4[nH]cnc4c3)[C@H]1C2 [BI 187004]
- Tmax ([1]; 40 mg, SS, 40 mg, Day 14): 0.834 h
- AUC ([1]; 80 mg): 58.8 µM·h
- AUC(0-t) ([1]; 80 mg): 46.5 µM·h
- Vd/F ([1]; 80 mg): 346 L
- half-life ([1]; 80 mg): 60.3 h
- Cmax ([1]; 80 mg, C max, 80 mg, Day 1): 4.32 µM
- Cmax ([1]; 80 mg, C max,SS, 80 mg, Day 14): 4.93 µM
- Tmax ([1]; 80 mg, 80 mg, Day 1): 0.834 h
- Tmax ([1]; 80 mg, SS, 80 mg, Day 14): 1.25 h
- AUC ([1]; 160 mg): 127 µM·h
- AUC(0-t) ([1]; 160 mg): 106 µM·h
- Vd/F ([1]; 160 mg): 230 L
- half-life ([1]; 160 mg): 43.1 h
- Cmax ([1]; 160 mg, C max, 160 mg, Day 1): 11.5 µM
- Cmax ([1]; 160 mg, C max,SS, 160 mg, Day 14): 12.1 µM
- Tmax ([1]; 160 mg, 160 mg, Day 1): 1 h
- Tmax ([1]; 160 mg, SS, 160 mg, Day 14): 0.667 h
- AUC ([1]; 240 mg): 145 µM·h
- AUC(0-t) ([1]; 240 mg): 130 µM·h
- Vd/F ([1]; 240 mg): 359 L
- half-life ([1]; 240 mg): 51.5 h
- Cmax ([1]; 240 mg, C max, 240 mg, Day 1): 14.6 µM
- Cmax ([1]; 240 mg, C max,SS, 240 mg, Day 14): 15 µM
- Tmax ([1]; 240 mg, 240 mg, Day 1): 1 h
- Tmax ([1]; 240 mg, SS, 240 mg, Day 14): 0.667 h
- AUC ([1]; 360 mg): 162 µM·h
- AUC(0-t) ([1]; 360 mg): 140 µM·h
- Vd/F ([1]; 360 mg): 1160 L
- half-life ([1]; 360 mg): 124 h
- Cmax ([1]; 360 mg, C max, 360 mg, Day 1): 14.3 µM
- Cmax ([1]; 360 mg, C max,SS, 360 mg, Day 14): 15.5 µM
- Tmax ([1]; 360 mg, 360 mg, Day 1): 1 h
- Tmax ([1]; 360 mg, SS, 360 mg, Day 14): 1.5 h
- total urinary corticosteroid excretion, % of baseline, range over dose groups (HPA axis; after 14 days of treatment): 176.2–253.5%
- total urinary corticosteroid excretion increased to (HPA axis; highest dose-group value): 253.5%
- increase in total urinary corticosteroid excretion (HPA axis; multiple doses, 14 days): 2.48 fold
- clinical laboratory evaluations and vital signs (Safety and tolerability; 10–360 mg over 14 days): no notable findings
- hypoglycemic episodes (Safety and tolerability; 10–360 mg over 14 days): No hypoglycemic episodes were reported
- intensity of AEs (Safety and tolerability; all dose groups): mild or moderate intensity
- serious AE or death (Safety and tolerability; during the trial): No serious AE or death occurred
- AE leading to discontinuation of treatment (Safety and tolerability; one patient, 360 mg, day 6, drug-related, moderate intensity): supraventricular tachycardia
- pollakiuria (AE) (Safety and tolerability; total BI 187004 group (6 patients, all 80–360 mg)): 10.7%
- gastrointestinal disorders (AE) (Safety and tolerability; total BI 187004 group (9 patients)): 16.1%
- nervous system disorders (only disorder: headache) (Safety and tolerability; total BI 187004 group (11 patients)): 19.6%
- frequency of patients reported with any AE (Safety and tolerability; total BI 187004 group (33 patients)): 58.9%
- incidence of drug-related adverse events (Safety and tolerability; total BI 187004 group, 10–360 mg once daily over 14 days (n=29)): 51.8%
- fasting plasma glucose over the treatment period (Metabolic parameters; 14 days): not affected
- body weight (Metabolic parameters; baseline, day 15, end-of-trial): remained unchanged; also recorded: Changes in body weight could not be observed
- plasma protein binding [2]: no increase in plasma protein binding down to 10 nmol/L
- mean ACTH levels [3]: increased but within the normal range
- BI 187004 AT Cday15 ([4]; 10 mg): 45.5 (37.0) nmol/L
- BI 187004 AT Cday2 ([4]; 10 mg): 34.5 (38.3) nmol/L
- BI 187004 AT Cday15 ([4]; 20 mg): 66.1 (25.5) nmol/L
- BI 187004 AT Cday2 ([4]; 20 mg): 51.8 (83.7) nmol/L
- BI 187004 AT Cday15 ([4]; 40 mg): 74.2 (29.6) nmol/L
- BI 187004 AT Cday2 ([4]; 40 mg): 142 (72.1) nmol/L
- BI 187004 AT Cday15 ([4]; 80 mg): 140 (28.4) nmol/L
- BI 187004 AT Cday2 ([4]; 80 mg): 142 (55.9) nmol/L
- BI 187004 AT Cday15 ([4]; 160 mg): 238 (56.6) nmol/L
- BI 187004 AT Cday2 ([4]; 160 mg): 518 (65.7) nmol/L
- BI 187004 AT Cday15 ([4]; 240 mg): 245 (62.8) nmol/L
- BI 187004 AT Cday2 ([4]; 240 mg): 872 (54.6) nmol/L
- BI 187004 AT Cday15 ([4]; 360 mg): 454 (29.3) nmol/L
- BI 187004 AT Cday2 ([4]; 360 mg): 925 (41.7) nmol/L
- blood cell partitioning [5]: no difference in blood cell partitioning at low concentrations
- drug-related AEs ([6]; SRD study, healthy volunteers): 16.7%
- half-life ([6]; single dose 5 mg, healthy volunteers): 33.5 h
- half-life ([6]; single dose 360 mg, healthy volunteers): 13.9 h
- increase of total urinary corticosteroid excretion ([6]; single doses 2.5–360 mg): up to 2 fold
- general disorders and administration site conditions (AE, system organ class) [7]: 14.3%
